# Read-outs that look alike come from different tables or passages of the source.
# Legend:
# Aβ42 = experiment: γ-secretase-modulating activity, Method 2: Aβ42 Alphalisa in supernatant of SKNBE2 cells carrying APP 695-wild type (Table 3b); format: cell-based; conditions: overnight
# Procedure, shortened: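 Aβ42 in the supernatant was quantified by AlphaLISA sandwich (JRF/cAβ42/26 with JRF/AβN/25). Cells were wild-type APP695 SKNBE2, exposed to compound overnight at 37° C., 5% CO2. Data were normalised to untreated maximum and fitted with a four-parameter curve to give IC50.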
# Aβtotal = experiment: γ-secretase-modulating activity, Method 2: Aβtotal Alphalisa in supernatant of SKNBE2 cells carrying APP 695-wild type (Table 3b); format: cell-based; conditions: overnight, read-out: IC50 Aβtot
# Procedure, shortened: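 Secreted Aβtotal was quantified by AlphaLISA pairing an N-terminal antibody (JRF/AβN/25) with biotinylated mid-region 4G8. Wild-type APP 695 SKNBE2 cells received serially varied compound overnight at 37 °C; IC50 came from a 4-parameter nonlinear regression of percent of control against log dose.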
Structure (SMILES),IC50 (Aβ42) [nM],IC50 (Aβtotal) [nM],IC50 (Aβ42; Homo sapiens) [nM],IC50 (Aβtotal; Homo sapiens) [nM]
COc1cc(-c2nc3n(n2)CCOC3c2ccc(F)cc2C)ccc1-n1cnc(C)c1 (centres unmarked) [Compound 305],646,> 10000,–,–
COc1cc(-c2nc(Oc3ccccc3Cl)n(C)n2)ccc1-n1cnc(C)n1 [Compound 272],7590,> 10000,–,–
COc1cc(-c2nc3n(n2)CCCOC3c2ccccc2C(F)(F)F)ccc1-n1cnc(C)c1 (centres unmarked) [Compound 285],76,> 10000,–,–
COc1cc(-c2nc(Nc3cccc(Cl)c3OC)n(C)n2)ccc1-n1cnc(C)c1 [Compound 194],65,> 10000,–,–
COc1cc(-c2nc(N3CCOc4ccccc43)n(C)n2)ccc1-n1cnc(C)c1 [Compound 325],182,> 10000,–,–
COc1nc(-c2nc3n(n2)CCOC3c2cccc(F)c2C)ccc1-n1cnc(C)c1 (centres unmarked) [Compound 347],126,> 10000,–,–
COc1cc(-c2nc3c(-c4ccccc4Cl)cccn3n2)ccc1-n1cnc(C)c1 [Compound 286],145,10000,–,–
COc1cc(-c2nc(Nc3ccc(=O)n(C)c3)n(C)n2)ccc1-n1cnc(C)c1 [Compound 242],> 10000,> 10000,–,–
COc1cc(F)c(F)c(Nc2nc(-c3ccc(-n4cnc(C)c4)c(OC)c3)nn2C)c1 [Compound 216],76,> 10000,–,–
Cc1cn(-c2ccc(-c3nc(Nc4ccc(F)cc4C(F)(F)F)n(C)n3)nc2)cn1 [Compound 170],3240,> 10000,–,–
COc1cc(-c2nc(N3CCCN(C(C)=O)CC3)n(C(C)C)n2)ccc1-n1cnc(C)c1 [Compound 301],> 10000,> 10000,–,–
COc1nc(-c2nc3n(n2)CCC[C@@H]3c2ccccc2C(F)(F)F)ccc1-n1cnc(C)c1 [Compound 262],324,> 10000,–,–
COc1cc(-c2nc(Nc3cc(Cl)cc(Cl)c3)n(C)n2)ccc1-n1cnc(C)c1 [Compound 115],102,> 10000,–,–
COc1cc(-c2nc3n(n2)CCCC3c2cccc(F)c2)ccc1-n1cnc(C)c1 (centres unmarked) [Compound 252],240,> 10000,–,–
COc1cccc(-c2n[nH]c(-c3ccc(-n4cnc(C)c4)c(OC)c3)n2)c1 [Compound 55],234,> 10000,–,–
COc1cc(-c2nc(Nc3cccc4c3OC(F)(F)O4)n(C)n2)ccc1-n1cnc(C)c1 [Compound 317],34,7940,–,–

Structure (SMILES),IC50 (Aβ42) [nM],IC50 (Aβtotal) [nM],IC50 (Aβ42; Homo sapiens) [nM],IC50 (Aβtotal; Homo sapiens) [nM]
COc1cc(-c2nc(NC3CCCC(C(F)(F)F)C3)n(C)n2)ccc1-n1cnc(C)c1 (centres unmarked) [Compound 95],912,> 10000,–,–
COc1cc(-c2nc(Nc3ccccc3)n(C)n2)ccc1-n1cnc(C)c1 [Compound 335],200,> 10000,–,–
COc1cc(-c2nc3n(n2)CCOC3c2ccc(F)cc2C)ccc1-n1cnc(C)c1 (centres unmarked) [Compound 166],65,> 10000,–,–
COc1cc(-c2nc(NC3CCCCC3)n(C)n2)ccc1-n1cnc(C)c1 [Compound 94],871,> 10000,–,–
COc1cc(-c2nc(Oc3ccccc3Cl)n(C)n2)ccc1-n1cnc(C)c1 [Compound 248],389,> 10000,–,–
COc1cc(-c2nc(Nc3cccc(Cl)c3Cl)n(C)n2)ccc1-n1cnc(C)c1 [Compound 119],54,> 10000,–,–
COc1cc(-c2nc3n(n2)CCCC3(CO)c2ccc(F)cc2C)ccc1-n1cnc(C)c1 (centres unmarked) [Compound 334],–,–,263,> 10000
COc1cc(-c2nc(N3CCCC(c4ccccc4)C3)n(C(C)C)n2)ccc1-n1cnc(C)c1 (centres unmarked) [Compound 79],–,–,36,6610
COc1cc(-c2nc3n(n2)CCOC3c2ccccc2C(F)(F)F)ccc1-n1cnc(C)c1 (centres unmarked) [Compound 279],–,–,62,> 10000
COc1cc(-c2nc(-c3ccc(F)cc3)n(C3CCCC3)n2)ccc1-n1cnc(C)c1 [Compound 41],407,> 10000,–,–
Cc1cn(-c2ccc(-c3nc(Nc4cc(C(F)(F)F)ccc4F)n(C)n3)cc2)cn1 [Compound 207],123,> 10000,–,–
COc1cc(-c2nc(Nc3ccnc(Cl)c3)n(C)n2)ccc1-n1cnc(C)c1 [Compound 234],955,> 10000,–,–
Cc1cn(-c2ccc(-c3nc(Nc4ccccc4C(F)(F)F)n(C)n3)cc2C#N)cn1 [Compound 321],182,> 15000,–,–
COc1cc(-c2nc(N(C(C)=O)c3cc(F)c(F)cc3I)n(C)n2)ccc1-n1cnc(C)c1 [Compound 232],–,–,1410,> 10000
COc1cc(-c2nc3n(n2)CCCC3c2ccc(F)cc2F)ccc1-n1cnc(C)c1 (centres unmarked) [Compound 259],158,> 10000,–,–
COc1cc(-c2nc(C(C)C)n(-c3ccc(F)cc3)n2)ccc1-n1cnc(C)c1 [Compound 31],447,> 10000,–,–

# More lines, now with the values ahead:
IC50 (Aβ42) [nM],IC50 (Aβtotal) [nM],IC50 (Aβ42; Homo sapiens) [nM],IC50 (Aβtotal; Homo sapiens) [nM],Structure (SMILES)
8,6310,–,–,COc1cc(-c2nc(Nc3cc(C(F)(F)F)ccc3C)n(C)n2)ccc1-n1cnc(C)c1 [Compound 131]
1510,6030,–,–,COc1cc(-c2nc(-c3cc(C(F)(F)F)ccc3C)nn2C)ccc1-n1cnc(C)c1 [Compound 296]
51,> 10000,–,–,COc1cc(-c2nc(Nc3c(C)cccc3F)n(C)n2)ccc1-n1cnc(C)c1 [Compound 323]
148,> 10000,–,–,COc1cc(-c2nc(-c3ccc(-n4cnc(C)c4)c(OC)c3)nn2C)ccc1Cl [Compound 43]
41,> 10000,–,–,COc1cc(-c2nc(Nc3cc(C(F)(F)F)ccc3F)n(CCC#N)n2)ccc1-n1cnc(C)c1 [Compound 137]
95,> 10000,–,–,COc1cc(-c2nc(Nc3cccc(F)c3C(F)(F)F)n(C)n2)ccc1-n1cnc(C)c1 [Compound 155]
62,> 10000,–,–,COc1cc(-c2nc(Nc3cccc(C(F)(F)F)c3Cl)n(C)n2)ccc1-n1cnc(C)c1 [Compound 163]
117,> 10000,–,–,COc1cc(-c2nc(Nc3ccc(F)cc3Cl)n(C)n2)ccc1-n1cnc(C)c1 [Compound 109]
52,9550,–,–,COCCn1nc(-c2ccc(-n3cnc(C)c3)c(OC)c2)nc1Nc1cc(C(F)(F)F)ccc1F [Compound 209]
15,> 15000,–,–,COc1ccc(C(F)(F)F)cc1Nc1nc(-c2ccc(-n3cnc(C)c3)c(OC)n2)nn1C [Compound 201]
30,> 10000,–,–,COc1cc(-c2nc(Nc3cc(Cl)ccc3C(F)(F)F)n(C)n2)ccc1-n1cnc(C)c1 [Compound 143]
155,10000,–,–,COc1cc(-c2nc(Nc3cccc(C(F)(F)F)c3)n(C)n2)ccc1-n1cnc(C)n1 [Compound 273]
–,–,501,7940,COc1cc(-c2nc(C(C)(O)c3cccc(C(F)(F)F)c3)n(C(C)C)n2)ccc1-n1cnc(C)c1 (centres unmarked) [Compound 89]
19,> 10000,–,–,COc1ccc(Cl)c(Nc2nc(-c3ccc(-n4cnc(C)c4)c(OC)c3)nn2C)c1 [Compound 189]
178,> 10000,–,–,COc1cc(-c2nc(Nc3c(F)cccc3C(F)(F)F)n(C)n2)ccc1-n1cnc(C)c1 [Compound 208]
41,9550,–,–,COc1ccc(Cl)cc1Nc1nc(-c2ccc(-n3cnc(C)c3)c(OC)c2)nn1C [Compound 192]

IC50 (Aβ42) [nM],IC50 (Aβtotal) [nM],IC50 (Aβ42; Homo sapiens) [nM],IC50 (Aβtotal; Homo sapiens) [nM],Structure (SMILES)
–,–,309,> 10000,COc1cc(-c2n[nH]c(-c3cccc(C(F)(F)F)c3)n2)ccc1-n1cnc(C)c1 [Compound 6]
3090,> 10000,–,–,COc1cc(-c2nc(-c3cc(Cl)ccc3C)nn2C)ccc1-n1cnc(C)c1 [Compound 298]
355,> 10000,–,–,COc1cc(-c2nc(-c3ccc(F)cc3)n(C)n2)ccc1-n1cnc(C)c1 [Compound 40]
676,891,–,–,COc1cc(-c2nc(Nc3ccc(C#N)cc3F)n(C)n2)ccc1-n1cnc(C)c1 [Compound 227]
19,5010,–,–,CCC(C)n1nc(-c2ccc(-n3cnc(C)c3)c(OC)c2)nc1Nc1cc(C(F)(F)F)ccc1F (racemic) [Compound 179]
200,9550,–,–,COc1cc(-c2nc(-c3ccccc3C(F)(F)F)n(C(C)C)n2)ccc1-n1cnc(C)c1 [Compound 67]
562,8910,–,–,COc1cc(-c2nc(C3(c4cc(C(F)(F)F)ccc4F)CC3)n(C)n2)ccc1-n1cnc(C)c1 [Compound 90]
603,> 10000,–,–,COc1cc(-c2nc(Nc3cccnc3C(F)(F)F)n(C)n2)ccc1-n1cnc(C)c1 [Compound 233]
302,> 10000,–,–,COc1cc(-c2nc(Nc3ccc(C#N)cc3C(F)(F)F)n(C)n2)ccc1-n1cnc(C)c1 [Compound 230]
46,> 10000,–,–,COc1cc(-c2nc(Nc3ccccc3C(F)(F)F)n(C(C)C)n2)ccc1-n1cnc(C)c1 [Compound 176]
71,> 10000,–,–,COc1cc(-c2nc(Nc3cc(F)ccc3C(F)(F)F)n(C)n2)ccc1-n1cnc(C)c1 [Compound 168]
38,2240,–,–,COc1cc(-c2nc(Nc3cccc(C(F)(F)F)c3)n(CC(F)(F)F)n2)ccc1-n1cnc(C)c1 [Compound 145]
708,> 10000,–,–,COc1cc(-c2nc3c(Nc4cccc(C(F)(F)F)c4)cccn3n2)ccc1-n1cnc(C)c1 [Compound 289]
6,> 10000,–,–,COc1nc(-c2nc(Nc3cc(C(F)(F)F)ccc3Cl)n(C)n2)ccc1-n1cnc(C)c1 [Compound 160]
78,> 10000,–,–,COc1cccc(Nc2nc(-c3ccc(-n4cnc(C)c4)c(OC)c3)nn2C)c1 [Compound 186]
> 10000,> 10000,–,–,COc1cc(-c2nc(N(C)c3ccc(F)cc3C(F)(F)F)nn2C)ccc1-n1cnc(C)c1 [Compound 53]
